Measurements taken from PMC8500670, “A selective WDR5 degrader inhibits acute myeloid leukemia in patient-derived mouse models” (Science translational medicine, 2021).

Key:
Assay in all cases: biochemical
Parameters in all cases: protein methyltransferase inhibition panel, single concentration, duplicate
PRMT1 = PRMT1 (Homo sapiens, UniProt Q99873)
Experimental: (§1) We next assessed selectivity of MS67 against 22 protein methyltransferases (table S2) and a broad panel of common drug targets including 45 kinases (table S3) and 44 G protein–coupled receptors (GPCR), ion channels, and transporters (table S4). […] We subsequently determined that MS67 had moderate binding affinity (Ki = 1.0 ± 0.8 μM) to Sigma 2 receptor (fig. S10).

PRMT3 = PRMT3 (Homo sapiens, UniProt O60678)
Experimental: as §1

G9a = target: T1, G9a (Homo sapiens, UniProt Q96KQ7)
T1 construct: gene EHMT2
T1 sequence (Q96KQ7 1-1210): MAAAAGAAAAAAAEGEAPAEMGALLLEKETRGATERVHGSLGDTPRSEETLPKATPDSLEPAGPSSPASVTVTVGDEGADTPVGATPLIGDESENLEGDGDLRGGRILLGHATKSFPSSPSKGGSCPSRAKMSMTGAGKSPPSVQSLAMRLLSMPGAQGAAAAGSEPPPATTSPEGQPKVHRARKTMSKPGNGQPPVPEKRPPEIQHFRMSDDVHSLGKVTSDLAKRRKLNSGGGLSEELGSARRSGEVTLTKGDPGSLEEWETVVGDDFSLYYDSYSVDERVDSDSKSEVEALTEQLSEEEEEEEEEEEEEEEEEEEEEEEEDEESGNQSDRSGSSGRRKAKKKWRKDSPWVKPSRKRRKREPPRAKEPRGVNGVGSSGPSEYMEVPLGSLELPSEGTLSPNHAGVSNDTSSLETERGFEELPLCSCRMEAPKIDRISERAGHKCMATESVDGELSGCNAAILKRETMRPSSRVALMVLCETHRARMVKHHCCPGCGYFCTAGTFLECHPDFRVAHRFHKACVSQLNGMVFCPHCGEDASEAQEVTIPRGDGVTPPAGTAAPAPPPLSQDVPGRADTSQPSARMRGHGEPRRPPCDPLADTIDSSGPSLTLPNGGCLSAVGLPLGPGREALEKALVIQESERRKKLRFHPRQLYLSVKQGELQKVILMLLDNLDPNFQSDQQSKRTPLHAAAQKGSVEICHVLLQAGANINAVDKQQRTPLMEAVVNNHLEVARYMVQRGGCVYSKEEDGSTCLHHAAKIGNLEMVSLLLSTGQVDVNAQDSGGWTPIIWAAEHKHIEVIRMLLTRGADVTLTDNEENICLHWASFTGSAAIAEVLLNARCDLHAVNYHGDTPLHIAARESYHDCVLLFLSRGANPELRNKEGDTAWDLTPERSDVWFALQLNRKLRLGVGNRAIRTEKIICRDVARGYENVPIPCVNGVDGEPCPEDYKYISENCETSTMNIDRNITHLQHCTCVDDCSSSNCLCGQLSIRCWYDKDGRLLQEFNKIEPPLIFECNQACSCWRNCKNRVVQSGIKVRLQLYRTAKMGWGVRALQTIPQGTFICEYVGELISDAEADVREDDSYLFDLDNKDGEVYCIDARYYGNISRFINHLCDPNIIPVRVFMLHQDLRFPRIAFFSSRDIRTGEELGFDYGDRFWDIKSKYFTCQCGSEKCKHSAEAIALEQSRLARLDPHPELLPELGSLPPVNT
Experimental: as §1

PRMT7 = target: T2, PRMT7 (Homo sapiens, UniProt Q9NVM4)
T2 sequence (Q9NVM4 1-692): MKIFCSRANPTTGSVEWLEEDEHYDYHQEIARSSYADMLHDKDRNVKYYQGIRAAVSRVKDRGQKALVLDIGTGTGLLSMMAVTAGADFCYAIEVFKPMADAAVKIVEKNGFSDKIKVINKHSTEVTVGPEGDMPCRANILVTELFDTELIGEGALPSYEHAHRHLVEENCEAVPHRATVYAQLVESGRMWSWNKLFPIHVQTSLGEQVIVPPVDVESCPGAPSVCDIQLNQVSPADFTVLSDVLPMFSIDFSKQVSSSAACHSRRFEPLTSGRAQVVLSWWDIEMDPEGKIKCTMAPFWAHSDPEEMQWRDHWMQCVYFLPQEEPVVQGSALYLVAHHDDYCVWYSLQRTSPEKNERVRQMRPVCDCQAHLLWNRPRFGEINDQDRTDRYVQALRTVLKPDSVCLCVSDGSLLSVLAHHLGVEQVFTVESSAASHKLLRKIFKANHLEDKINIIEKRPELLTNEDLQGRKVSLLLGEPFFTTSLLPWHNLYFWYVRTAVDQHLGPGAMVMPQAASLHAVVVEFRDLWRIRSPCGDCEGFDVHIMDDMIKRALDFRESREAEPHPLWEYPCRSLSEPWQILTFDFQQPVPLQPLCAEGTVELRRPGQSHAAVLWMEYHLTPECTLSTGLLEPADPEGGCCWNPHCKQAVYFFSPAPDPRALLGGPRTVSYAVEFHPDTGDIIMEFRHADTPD
Experimental: as §1

Measured: inhibition at 10 µM

PRMT3, sequence (O60678 whole entry): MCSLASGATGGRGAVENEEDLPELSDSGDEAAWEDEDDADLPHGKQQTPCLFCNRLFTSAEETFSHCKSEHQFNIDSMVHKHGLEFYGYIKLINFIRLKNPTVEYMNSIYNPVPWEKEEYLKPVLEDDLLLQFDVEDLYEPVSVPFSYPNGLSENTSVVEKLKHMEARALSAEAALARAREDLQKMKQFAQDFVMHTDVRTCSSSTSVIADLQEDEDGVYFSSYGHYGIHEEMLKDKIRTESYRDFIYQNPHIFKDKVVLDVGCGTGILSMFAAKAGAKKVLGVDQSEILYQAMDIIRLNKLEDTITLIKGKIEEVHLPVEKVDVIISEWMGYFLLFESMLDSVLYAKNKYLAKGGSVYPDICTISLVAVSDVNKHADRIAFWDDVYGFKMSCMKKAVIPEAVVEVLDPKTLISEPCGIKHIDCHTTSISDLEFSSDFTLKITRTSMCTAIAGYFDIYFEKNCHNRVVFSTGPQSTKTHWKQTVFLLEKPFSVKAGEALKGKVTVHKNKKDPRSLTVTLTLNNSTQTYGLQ
PRMT1, sequence (Q99873 whole entry): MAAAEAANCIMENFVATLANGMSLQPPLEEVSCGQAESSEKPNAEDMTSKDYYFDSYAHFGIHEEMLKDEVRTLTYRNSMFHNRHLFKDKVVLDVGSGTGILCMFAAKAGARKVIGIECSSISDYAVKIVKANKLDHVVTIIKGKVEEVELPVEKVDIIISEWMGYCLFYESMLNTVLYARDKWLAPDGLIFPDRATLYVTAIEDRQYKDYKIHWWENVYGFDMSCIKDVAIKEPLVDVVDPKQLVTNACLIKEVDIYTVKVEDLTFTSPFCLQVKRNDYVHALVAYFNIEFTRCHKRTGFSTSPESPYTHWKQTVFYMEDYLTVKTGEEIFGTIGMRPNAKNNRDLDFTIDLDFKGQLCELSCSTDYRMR

Cc1ncsc1-c1ccc([C@H](C)NC(=O)[C@@H]2C[C@@H](O)CN2C(=O)[C@@H](NC(=O)CNC(=O)c2ccc(F)c(-c3ccc(N4C[C@@H](C)N(C)[C@@H](C)C4)c(NC(=O)c4c[nH]c(=O)cc4C(F)(F)F)c3)c2)C(C)(C)C)cc1 [MS67]
< 10%: all assays above
